Measured values: article PMC5578959, “Selective LRRK2 kinase inhibition reduces phosphorylation of endogenous Rab10 and Rab12 in human peripheral mononuclear blood cells” (Scientific Reports, 2017)

Assays:
Assay in all cases: KiNativ profiling in human PBMCs
Assay type in all cases: binding
PIP4K2A = system: T1, PIP4K2A; settings: ATP
T1 construct: purchased ActivX Technologies (KiNativ)
Experimental: (§1) Compounds were shipped to ActivX Technologies (San Diego, US) where LRRK2 target engagement and broad kinase profiling was performed using KiNativ™ procedures. Live cell treatment of human peripheral blood mononuclear cells (PBMCs) at two compound concentrations (1 µM and 0.1 µM) were used to evaluate and compare in vitro target engagement and kinase selectivity, respectively (see Supplementary File 1).

Wnk1,Wnk2,Wnk4 = settings: Activation Loop
Experimental: as §1

[1] = system: CaMK2a,CaMK2b,CaMK2d,CaMK2g; settings: Lys2
Experimental: as §1

STLK5 = system: T2, STLK5
T2 construct: purchased ActivX Technologies (KiNativ)
Experimental: as §1

MST1 = system: T3, MST1; settings: Lys1
T3 construct: purchased ActivX Technologies (KiNativ)
Experimental: as §1

ABL,ARG = settings: Activation Loop
Experimental: as §1

PIK3CG = system: T4, PIK3CG; settings: ATP
T4 construct: purchased ActivX Technologies (KiNativ)
Experimental: as §1

LATS1 = system: T5, LATS1
T5 construct: purchased ActivX Technologies (KiNativ)
Experimental: as §1

MLKL = system: T6, MLKL; settings: Lys1
T6 construct: purchased ActivX Technologies (KiNativ)
Experimental: as §1

PIK3CB = system: T7, PIK3CB; settings: ATP
T7 construct: purchased ActivX Technologies (KiNativ)
Experimental: as §1

IRAK1 = system: T8, IRAK1; settings: Lys2
T8 construct: purchased ActivX Technologies (KiNativ)
Experimental: as §1

MAP3K5 = system: T9, MAP3K5; settings: Lys2
T9 construct: purchased ActivX Technologies (KiNativ)
Experimental: as §1

IRAK4 = system: T10, IRAK4
T10 construct: purchased ActivX Technologies (KiNativ)
Experimental: as §1

Wnk1,Wnk2 = settings: ATP Loop
Experimental: as §1

MAP2K1,MAP2K2 = settings: Lys2
Experimental: as §1

PRPK = system: T11, PRPK; settings: ATP Loop
T11 construct: purchased ActivX Technologies (KiNativ)
Experimental: as §1

IRE1 = system: T12, IRE1; settings: Lys2
T12 construct: purchased ActivX Technologies (KiNativ)
Experimental: as §1

MST1,MST2 = settings: Lys2
Experimental: as §1

NEK9 = system: T13, NEK9
T13 construct: purchased ActivX Technologies (KiNativ)
Experimental: as §1

PCTAIRE2 = system: T14, PCTAIRE2; settings: Lys2
T14 construct: purchased ActivX Technologies (KiNativ)
Experimental: as §1

p38d,p38g = settings: Lys2
Experimental: as §1

PYK2 = system: T15, PYK2; settings: Lys1
T15 construct: purchased ActivX Technologies (KiNativ)
Experimental: as §1

SLK = system: T16, SLK
T16 construct: purchased ActivX Technologies (KiNativ)
Experimental: as §1

MAP3K2,MAP3K3 = settings: Lys2
Experimental: as §1

FES = system: T17, FES; settings: Lys1
T17 construct: purchased ActivX Technologies (KiNativ)
Experimental: as §1

TAK1 = system: T18, TAK1; settings: Lys2
T18 construct: purchased ActivX Technologies (KiNativ)
Experimental: as §1

GCN2 = system: T19, GCN2; settings: Lys2
T19 construct: purchased ActivX Technologies (KiNativ)
Experimental: as §1

MST2 = system: T20, MST2; settings: 1µM; Lys1
T20 construct: purchased ActivX Technologies (KiNativ)
Experimental: as §1

RSK1,RSK2,RSK3 domain1 = settings: Lys2
Experimental: as §1

MAST3 = system: T21, MAST3; settings: Lys2
T21 construct: purchased ActivX Technologies (KiNativ)
Experimental: as §1

RSK1 domain2 = system: T22, RSK1 domain2; settings: Lys2
T22 construct: RSK1 domain2; purchased ActivX Technologies (KiNativ)
Experimental: as §1

HCK = system: T23, HCK; settings: Activation Loop
T23 construct: purchased ActivX Technologies (KiNativ)
Experimental: as §1

p70S6K = system: T24, p70S6K; settings: Lys2
T24 construct: purchased ActivX Technologies (KiNativ)
Experimental: as §1

RSK3 domain1 = system: T25, RSK3 domain1; settings: Lys2
T25 construct: RSK3 domain1; purchased ActivX Technologies (KiNativ)
Experimental: as §1

PCTAIRE1,PCTAIRE3 = settings: Lys2
Experimental: as §1

ZAK = system: T26, ZAK; settings: Lys1
T26 construct: purchased ActivX Technologies (KiNativ)
Experimental: as §1

AKT2,AKT3 = settings: ATP Loop
Experimental: as §1

## Cc1cccc(-c2cc(Nc3ccn(C)n3)nc3[nH]cc(C#N)c23)c1 [Lu AF58786]
PIP4K2A; 0.1µM
  Inhibition: -4.0%
PIP4K2A; 1µM
  Inhibition: -14.7%
Wnk1,Wnk2,Wnk4; 0.1µM
  Inhibition: 0.9%
Wnk1,Wnk2,Wnk4; 1µM
  Inhibition: -6.6%
[1]; 0.1µM
  Inhibition: -12.1%
[1]; 1µM
  Inhibition: -1.0%
STLK5; 0.1µM, Activation Loop
  Inhibition: 3.4%
STLK5; 0.1µM, Lys2
  Inhibition: 16.0%
STLK5; 1µM, Activation Loop
  Inhibition: -4.3%
STLK5; 1µM, Lys2
  Inhibition: 19.2%
MST1; 0.1µM
  Inhibition: 26.2%
MST1; 1µM
  Inhibition: 19.0%
ABL,ARG; 0.1µM
  Inhibition: -81.9%
ABL,ARG; 1µM
  Inhibition: -7.3%
PIK3CG; 0.1µM
  Inhibition: 8.8%
PIK3CG; 1µM
  Inhibition: 2.1%
LATS1; 0.1µM, Lys1
  Inhibition: 5.7%
LATS1; 0.1µM, Lys2
  Inhibition: -2.7%
LATS1; 1µM, Lys1
  Inhibition: 11.6%
MLKL; 0.1µM
  Inhibition: -7.9%
MLKL; 1µM
  Inhibition: -7.5%
PIK3CB; 0.1µM
  Inhibition: 14.0%
PIK3CB; 1µM
  Inhibition: -22.3%
IRAK1; 0.1µM
  Inhibition: 3.0%
IRAK1; 1µM
  Inhibition: 1.7%
MAP3K5; 0.1µM
  Inhibition: 4.3%
MAP3K5; 1µM
  Inhibition: -3.2%
IRAK4; 0.1µM, Lys1
  Inhibition: 16.2%
IRAK4; 0.1µM, Lys2
  Inhibition: 7.0%
IRAK4; 1µM, Lys1
  Inhibition: 13.3%
IRAK4; 1µM, Lys2
  Inhibition: 8.9%
Wnk1,Wnk2; 0.1µM
  Inhibition: 12.8%
Wnk1,Wnk2; 1µM
  Inhibition: 3.9%
MAP2K1,MAP2K2; 0.1 µM, DVKPSNILVNSR
  Inhibition: 4.0%
MAP2K1,MAP2K2; 1 µM, DVKPSNILVNSR
  Inhibition: 1.8%
MAP2K1,MAP2K2; 1 µM, IMHRDVKPSNILVNSR
  Inhibition: 14.1%
PRPK; 0.1µM
  Inhibition: 1.0%
PRPK; 1µM
  Inhibition: 8.9%
IRE1; 0.1µM
  Inhibition: -7.8%
IRE1; 1µM
  Inhibition: -11.6%
MST1,MST2; 0.1µM
  Inhibition: 6.3%
MST1,MST2; 1µM
  Inhibition: 4.8%
NEK9; 0.1µM, Lys1
  Inhibition: 8.4%
NEK9; 0.1µM, Lys2
  Inhibition: 12.6%
NEK9; 1µM, Lys1
  Inhibition: -0.0314%
NEK9; 1µM, Lys2
  Inhibition: -3.7%
PCTAIRE2; 0.1µM
  Inhibition: 18.1%
PCTAIRE2; 1µM
  Inhibition: -0.164%
p38d,p38g; 0.1µM
  Inhibition: 7.1%
p38d,p38g; 1µM
  Inhibition: -0.541%
PYK2; 0.1µM
  Inhibition: -16.3%
PYK2; 1µM
  Inhibition: -2.7%
SLK; 0.1µM, Lys1
  Inhibition: -13.3%
SLK; 0.1µM, Lys2
  Inhibition: 8.0%
SLK; 1µM, Lys1
  Inhibition: 25.5%
SLK; 1µM, Lys2
  Inhibition: -7.2%
MAP3K2,MAP3K3; 0.1µM
  Inhibition: 6.3%
MAP3K2,MAP3K3; 1µM
  Inhibition: 0.325%
FES; 0.1µM
  Inhibition: 13.9%
FES; 1µM
  Inhibition: 9.3%
TAK1; 0.1µM
  Inhibition: 21.8%
TAK1; 1µM
  Inhibition: -11.4%
GCN2; 0.1µM
  Inhibition: -20.3%
GCN2; 1µM
  Inhibition: -15.5%
MST2
  Inhibition: 11.8%
RSK1,RSK2,RSK3 domain1; 0.1µM
  Inhibition: 14.1%
RSK1,RSK2,RSK3 domain1; 1µM
  Inhibition: 29.7%
MAST3; 0.1µM
  Inhibition: 11.5%
MAST3; 1µM
  Inhibition: 0.2%
RSK1 domain2; 0.1µM
  Inhibition: 11.6%
RSK1 domain2; 1µM
  Inhibition: 5.6%
HCK; 0.1µM
  Inhibition: -0.451%
HCK; 1µM
  Inhibition: -12.8%
p70S6K; 0.1µM
  Inhibition: -7.6%
p70S6K; 1µM
  Inhibition: -5.7%
RSK3 domain1; 0.1µM
  Inhibition: 12.9%
RSK3 domain1; 1µM
  Inhibition: 26.9%
PCTAIRE1,PCTAIRE3; 0.1µM
  Inhibition: 5.6%
PCTAIRE1,PCTAIRE3; 1µM
  Inhibition: -11.1%
ZAK; 0.1µM
  Inhibition: 18.8%
ZAK; 1µM
  Inhibition: 11.6%
AKT2,AKT3; 0.1µM
  Inhibition: -0.7%
AKT2,AKT3; 1µM
  Inhibition: -7.3%
